Reference: EP4609864A1, “PHARMACEUTICAL COMPOSITION CONTAINING ISOQUINOLINONE COMPOUND, AND PREPARATION METHOD THEREFOR” (Jiangsu Hengrui Pharmaceuticals Co., Ltd., priority 2022, dated 2024)

Tests used:
[1] = tested on: immune cells in BALF; assay: Mouse model of LPS-induced acute pulmonary inflammation: immune cell counts in BALF; assay type: in vivo, BALB/c mouse; conditions: 1.0 mg/kg intratracheal nebulized, 1 h before LPS; BALF 6 h after modeling; vs. model group
Protocol: (§1) The study utilized a BALB/c mouse model of LPS-induced acute pulmonary inflammation to evaluate the inhibitory effect of the compound on pulmonary inflammation based on immune cell counts and TNFα cytokine levels in bronchoalveolar lavage fluid (BALF). The mice were divided into 6 groups, with 8 mice per group, including: a normal control group, a model control group, an RPL554 group (1.0 mg/kg), and low, medium, and high dose groups of compound A (0.3 mg/kg, 1.0 mg/kg, and 3.0 mg/kg). One hour after intratracheal administration of nebulized drugs, the mice were stimulated by nebulized LPS for modeling. Six hours after modeling, BALF was collected from the animals, and the total cells, the neutrophils, and the eosinophils in BALF were counted, along with the measurement of the pro-inflammatory cytokine TNFα level in BALF.

[2] = phase II; patients with chronic obstructive pulmonary disease; cited from earlier work
[3] = tested on: TNFα; assay: Mouse model of LPS-induced acute pulmonary inflammation: TNFα level in BALF; assay type: in vivo, BALB/c mouse; conditions: 1.0 mg/kg intratracheal nebulized, 1 h before LPS; BALF 6 h after modeling; vs. model group
Protocol: as §1

COc1cc2c(cc1OC)-c1c/c(=N\c3c(C)cc(C)cc3C)n(CCNC(N)=O)c(=O)n1CC2 [RPL554, 9,10-dimethoxy-2-(2,4,6-trimethylphenylimino)-3-(N-carbamoyl-2-aminoethyl)-3,4,6,7-tetrahydro-2H-pyrimido[6,1-α]isoquinolin-4-one]
number of eosinophils in BALF [1]: significantly lower
number of neutrophils in BALF [1]: significantly lower
number of total cells in BALF [1]: significantly lower
bronchodilation and symptoms [2]: significantly improve bronchodilation and symptoms
tolerability, adverse events [2]: well tolerated
TNFα level in BALF [3]: downward trend
